Results as given in patent publication EP4722211A1, “FGFR2/3 SELECTIVE INHIBITOR, PHARMACEUTICAL COMPOSITION AND USE THEREOF” (Changchun Genescience Pharmaceutical Co., Ltd., priority 2023, dated 2024).
Read-outs that look alike come from different tables or passages of the source.

Legend:
[1] = system: Ba/F3-FGFR1 cells; experiment: Cell proliferation inhibition, CTG method (Ba/F3-FGFR1); type: cell-based; conditions: 72 hrs
Protocol: (§1) The CTG method was used to detect the inhibitory effect of the compound on the proliferation of Ba/F3-FGFR1, Ba/F3-FGFR2, Ba/F3-FGFR3, and Ba/F3-FGFR4 cells. The highest concentration tested was 3000 nM, which was three-fold diluted to give 10 concentrations. The test was duplicated.
(§2) • a) Ba/F3-FGFR1, Ba/F3-FGFR2, Ba/F3-FGFR3, and Ba/F3-FGFR4 were cultured to exponential growth period for later use. […] 30 µL of Ba/F3-FGFR1, Ba/F3-FGFR2, Ba/F3-FGFR3, or Ba/F3-FGFR4 (500/well) was uniformly seeded in a 384-well black-edge cell culture plate containing the compound, having the wells at the edge blocked with 50 µL PBS, and cultured in an incubator with CO2 at 37°C for 72 hrs. • d) 30 µL of Cell-Titer-Glo reagent was added to each well, shaken and mixed evenly on a shaker, and then incubated at 37°C for 30 min. Then the signal was detected on a microplate reader after the signal was stable.

[2] = system: Ba/F3-FGFR2 cells; experiment: Cell proliferation inhibition, CTG method (Ba/F3-FGFR2); type: cell-based; conditions: 72 hrs
Protocol: as §1, §2

[3] = system: Ba/F3-FGFR3 cells; experiment: Cell proliferation inhibition, CTG method (Ba/F3-FGFR3); type: cell-based; conditions: 72 hrs
Protocol: as §1
• a) Ba/F3-FGFR1, Ba/F3-FGFR2, Ba/F3-FGFR3, and Ba/F3-FGFR4 were cultured to exponential growth period for later use. Complete medium: RPMI1640 medium, 10% FBS, 1% GlutaMAX and P/S, 10 ng/mL FGF1, 10 µg/mL Heparin,10 µM 2-mercaptoethanol, 2 µg/mL puromycin. • b) The stock solution of the compound of 3000 nM was diluted into a 384 cell culture plate using the ECHO liquid handling station, and centrifuged at 1000 g for 1 min. • c) The cells were digested. 30 µL of Ba/F3-FGFR1, Ba/F3-FGFR2, Ba/F3-FGFR3, or Ba/F3-FGFR4 (500/well) was uniformly seeded in a 384-well black-edge cell culture plate containing the compound, having the wells at the edge blocked with 50 µL PBS, and cultured in an incubator with CO2 at 37°C for 72 hrs. • d) 30 µL of Cell-Titer-Glo reagent was added to each well, shaken and mixed evenly on a shaker, and then incubated at 37°C for 30 min. Then the signal was detected on a microplate reader after the signal was stable.

[4] = system: Ba/F3-FGFR4 cells; experiment: Cell proliferation inhibition, CTG method (Ba/F3-FGFR4); type: cell-based; conditions: 72 hrs
Protocol: as §1, §2

[5] = Pharmacokinetic study in SD rats after oral gavage, plasma by LC/MS/MS; type: in vivo; conditions: rat, 2 mg/kg, 2mpk; for AUC(0-inf): read-out: AUCINF_pred; for MRT inf: read-out: MRTINF_pred
Protocol: The SD rats were used as test animals. The drug concentration in plasma at different time points was determined by LC/MS/MS method after the compound of the present invention was administered to the SD rats by oral gavage. The pharmacokinetic behavior of the compound of the present invention in SD rats was studied and the pharmacokinetic characteristics were evaluated.
24 SD Rat rats (female:male 1:1), purchased from Shanghai Ji Hui Laboratory Animal Breeding Co., Ltd., animal production license SCXK (Shanghai) 2017-0012, were divided into 6 groups.
The prescription was 5% DMSO + 60% PEG300 + 35% glucose aqueous solution. A proper amount of the representative compound of the present invention (converted according to the purity and salt coefficient) was weighed. A prescribed amount of DMSO was added, and a clear and transparent solution was obtained by vortex. Then a prescribed amount of PEG300 was added, and mixed by vortex. Then, a prescribed amount of a glucose aqueous solution was added. A 0.6 mg/mL or 2 mg/mL solution was obtained. During the preparation, if a solution cannot be obtained, ultrasonication in a water bath at a temperature not higher than 60°C can be performed to facilitate the dissolution.
Rats were administered by oral gavage (2mpk) after fasting for one night.
At 15 min, 30 min, 1 hr, 2 hrs, 4 hrs, 6 hrs, 8 hrs, and 24 hrs after administration, about 30 µL blood samples were collected into an anticoagulation tube containing the anticoagulant EDTA-K2, and centrifuged within 30 minutes to obtain the plasma. The whole blood sample was placed on wet ice before centrifugation. All of the collected plasma samples were stored on dry ice or at a temperature not higher than -70°C before analysis and detection. Liquid chromatography-tandem mass spectrometry (LC/MS/MS) was used to determine the original drug concentration in the plasma and the administered solution.

[6] = biological target: T1, FGFR1 (Homo sapiens, UniProt P11362); experiment: Kinase inhibitory activity by HTRF method (FGFR1); type: biochemical; conditions: highest concentration 3000 nM, 10 concentrations, duplicate
T1 construct: purchased Invitrogen PR4660A
Protocol: (§3) The inhibitory activity of the compounds on FGFR1 and FGFR3 kinases was tested by HTRF method. The highest concentration tested was 3000 nM, which was three-fold diluted to give 10 concentrations. The test was duplicated. […]

[7] = biological target: T2, FGFR3 (Homo sapiens, UniProt P22607); experiment: Kinase inhibitory activity by HTRF method (FGFR3); type: biochemical; conditions: highest concentration 3000 nM, 10 concentrations, duplicate
T2 construct: purchased Invitrogen PR4631B
Protocol: as §3

[8] = both sexes, Sprague-Dawley (SD)

T2 sequence (P22607 23-806): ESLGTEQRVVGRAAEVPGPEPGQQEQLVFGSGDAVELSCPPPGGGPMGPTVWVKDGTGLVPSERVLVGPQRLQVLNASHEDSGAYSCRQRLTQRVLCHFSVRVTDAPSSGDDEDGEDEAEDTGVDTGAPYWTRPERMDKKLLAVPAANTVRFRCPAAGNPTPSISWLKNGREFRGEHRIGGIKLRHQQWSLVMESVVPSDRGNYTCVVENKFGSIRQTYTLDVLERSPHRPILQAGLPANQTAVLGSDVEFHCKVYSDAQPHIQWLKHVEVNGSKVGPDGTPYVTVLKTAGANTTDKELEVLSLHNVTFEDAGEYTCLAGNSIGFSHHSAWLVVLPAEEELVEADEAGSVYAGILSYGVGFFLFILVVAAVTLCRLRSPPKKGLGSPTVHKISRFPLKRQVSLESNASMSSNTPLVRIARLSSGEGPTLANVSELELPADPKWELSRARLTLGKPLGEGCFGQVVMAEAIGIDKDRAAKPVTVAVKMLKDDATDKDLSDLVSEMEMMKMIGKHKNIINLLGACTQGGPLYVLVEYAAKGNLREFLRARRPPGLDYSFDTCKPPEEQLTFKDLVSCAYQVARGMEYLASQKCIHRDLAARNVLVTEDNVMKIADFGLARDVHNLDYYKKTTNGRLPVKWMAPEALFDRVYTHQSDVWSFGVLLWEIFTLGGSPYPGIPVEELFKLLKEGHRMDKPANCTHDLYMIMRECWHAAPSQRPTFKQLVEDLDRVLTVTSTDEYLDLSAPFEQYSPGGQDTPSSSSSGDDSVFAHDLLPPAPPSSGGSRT
T1 sequence (P11362 22-822): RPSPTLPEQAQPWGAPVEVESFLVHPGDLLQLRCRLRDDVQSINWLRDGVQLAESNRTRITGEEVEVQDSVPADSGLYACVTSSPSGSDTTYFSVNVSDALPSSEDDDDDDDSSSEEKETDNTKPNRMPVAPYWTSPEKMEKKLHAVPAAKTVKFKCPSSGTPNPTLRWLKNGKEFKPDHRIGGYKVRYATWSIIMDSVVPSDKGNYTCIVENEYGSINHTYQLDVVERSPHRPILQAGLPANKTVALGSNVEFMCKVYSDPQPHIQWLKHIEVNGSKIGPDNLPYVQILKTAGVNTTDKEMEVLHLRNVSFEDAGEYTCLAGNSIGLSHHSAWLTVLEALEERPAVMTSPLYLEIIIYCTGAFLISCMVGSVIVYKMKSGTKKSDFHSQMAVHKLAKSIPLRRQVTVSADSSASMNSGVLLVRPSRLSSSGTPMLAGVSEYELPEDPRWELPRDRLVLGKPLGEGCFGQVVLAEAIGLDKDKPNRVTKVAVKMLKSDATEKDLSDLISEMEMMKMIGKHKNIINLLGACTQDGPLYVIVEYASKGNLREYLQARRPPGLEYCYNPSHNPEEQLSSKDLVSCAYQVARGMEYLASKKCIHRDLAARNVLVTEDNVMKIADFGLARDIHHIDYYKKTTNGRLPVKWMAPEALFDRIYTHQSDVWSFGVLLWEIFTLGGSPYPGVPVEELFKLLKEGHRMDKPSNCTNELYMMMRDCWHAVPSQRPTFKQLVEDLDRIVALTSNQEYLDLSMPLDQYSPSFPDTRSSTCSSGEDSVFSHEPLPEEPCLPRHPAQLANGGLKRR

Compound | IC50 [1] | IC50 [2] | IC50 [3] | IC50 [4] | also measured
Cc1nn(C2CC2)cc1-c1ccc(-c2n[nH]c3ccc(O[C@H](C)c4c(Cl)cncc4Cl)nc23)cn1 [Cpd-145A, (R)-3-(6-(1-cyclopropyl-3-methyl-1H-pyrazol-4-yl)pyridin-3-yl)-5-(1-(3,5-dichloropyridin-4-yl)ethoxy)-1H-pyrazolo[4,3-b]pyridine] | 31.4 nM | 10.6 nM | 9.7 nM | 76.3 nM | AUC(0-t) [5, 8]: 1570 ng·h/mL; Cmax [5, 8]: 186 ng/mL; Tmax [5, 8]: 2 h; half-life [5, 8]: 4 h; AUC(0-inf) [5, 8]: 1610 ng·h/mL; MRT inf [5, 8]: 5.6 h
C[C@@H](Oc1ccc2[nH]nc(-c3ccc(N4CCC(C(C)(C)O)CC4)nc3)c2n1)c1c(Cl)cncc1Cl [Cpd-124A] | 123 nM | 16.7 nM | 13.6 nM | 80.4 nM | 
Cc1nn(CC(C)(C)O)c(C)c1-c1ncc(-c2n[nH]c3ccc(O[C@H](C)c4c(Cl)cncc4Cl)nc23)cc1F [Cpd-161A, (R)-1-(4-(5-(5-(1-(3,5-dichloropyridin-4-yl)ethoxy)-1H-pyrazolo[4,3-b]pyridin-3-yl)-3-fluoropyridin-2-yl)-3,5-dimethyl-1H-pyrazol-1-yl)-2-methyl-2-propanol] | 98.3 nM | 11.7 nM | 15.4 nM | 237 nM | 
CC(Oc1ccc2[nH]nc(-c3ccc(S(C)(=N)=O)nc3)c2n1)c1c(Cl)cncc1Cl (single isomer, unassigned) [Cpd-01C, (5-(5-(1-(3,5-dichloropyridin-4-yl)ethoxy)-1H-pyrazolo[4,3-b]pyridin-3-yl)pyridin-2-yl)(imino)(methyl)-λ^6-sulfonyl ketone] |  |  |  |  | IC50 [6]: 34.8 nM; IC50 [7]: 4.8 nM
Cc1nn(CC(C)(C)O)cc1-c1ncc(-c2n[nH]c3ccc(O[C@H](C)c4c(Cl)cncc4Cl)nc23)cc1F [Cpd-162A, (R)-1-(4-(5-(5-(1-(3,5-dichloropyridin-4-yl)ethoxy)-1H-pyrazolo[4,3-b]pyridin-3-yl)-3-fluoropyridin-2-yl)-3-methyl-1H-pyrazol-1-yl)-2-methyl-2-propanol] | 32.6 nM | 3.6 nM | 4 nM | 29.8 nM | 
Cc1nn(CC(C)(C)O)c(C)c1-c1ccc(-c2n[nH]c3ccc(O[C@H](C)c4c(Cl)cncc4Cl)nc23)cn1 [Cpd-158A] | 23.6 nM | 2 nM | 2.6 nM | 55.4 nM | 
C[C@@H](Oc1ccc2[nH]nc(-c3ccc(N4CCN(S(C)(=O)=O)CC4)nc3)c2n1)c1c(Cl)cncc1Cl [Cpd-119A] | 45.9 nM |  | 7.3 nM |  | 
CC(Oc1ccc2[nH]nc(-c3ccc(S(C)(=N)=O)nc3)c2n1)c1c(Cl)cncc1Cl (single isomer, unassigned) [Cpd-01D, (5-(5-(1-(3,5-dichloropyridin-4-yl)ethoxy)-1H-pyrazolo[4,3-b]pyridin-3-yl)pyridin-2-yl)(imino)(methyl)-λ^6-sulfonyl ketone] |  |  |  |  | IC50 [6]: 36.1 nM; IC50 [7]: 6.2 nM
CCN1CCN(c2ccc(Nc3cc(N(C)C(=O)Nc4c(Cl)c(OC)cc(OC)c4Cl)ncn3)cc2)CC1 [Infigratinib, reference compound] | 8.1 nM | 4 nM | 11.9 nM | 277 nM | AUC(0-t) [5, 8]: 103 ng·h/mL; Cmax [5, 8]: 22.2 ng/mL; Tmax [5, 8]: 3 h; half-life [5, 8]: 1.1 h; AUC(0-inf) [5, 8]: 106 ng·h/mL; MRT inf [5, 8]: 3.1 h
C[C@@H](Oc1ccc2[nH]nc(-c3cnc(C4=CCS(=O)(=O)CC4)c(F)c3)c2n1)c1c(Cl)cncc1Cl [Cpd-03A, (R)-4-(5-(5-(1-(3,5-dichloropyridin-4-yl)ethoxy)-1H-pyrazolopyridin-3-yl)-3-fluoropyridin-2-yl)-3,6-dihydro-2H-thiapyran 1,1-dioxide] | 14.2 nM | 8.4 nM | 4.2 nM | 33.8 nM | AUC(0-t) [5]: 86.2 ng·h/mL; Cmax [5]: 24.4 ng/mL; Tmax [5]: 1 h; half-life [5]: 1.5 h; AUC(0-inf) [5]: 91.5 ng·h/mL; MRT inf [5]: 2 h
Cc1cc2[nH]nc(-c3ccc(-c4c(C)nn(CC(C)(C)O)c4C)nc3)c2nc1O[C@H](C)c1c(Cl)cncc1Cl [Cpd-175A, (R)-1-(4-(5-(5-(1-(3,5-dichloropyridin-4-yl)ethoxy)-6-methyl-1H-pyrazolo[4,3-b]pyridin-3-yl)pyridin-2-yl)-3,5-dimethyl-1H-pyrazol-1-yl)-2-methyl-2-propanol] | 31.5 nM | 3.5 nM | 4.9 nM | 72.9 nM | AUC(0-t) [5, 8]: 359 ng·h/mL; Cmax [5, 8]: 82.6 ng/mL; Tmax [5, 8]: 2 h; half-life [5, 8]: 3.2 h; AUC(0-inf) [5, 8]: 508 ng·h/mL; MRT inf [5, 8]: 3.5 h
C[C@@H](Oc1ccc2[nH]nc(-c3ccc(C4=CCS(=O)(=O)CC4)nc3)c2n1)c1c(Cl)cncc1Cl [Cpd-02A, (R)-4-(5-(5-(1-(3,5-dichloropyridin-4-yl)ethoxy)-1H-pyrazolo[4,3-b]pyridin-3-yl)pyridin-2-yl)-3,6-dihydro-2H-thiopyran 1,1-dioxide] | 23.9 nM |  | 5.06 nM |  | 
